Data from patent US20230374038A1, “MODULATORS OF CYSTIC FIBROSIS TRANSMEMBRANE CONDUCTANCE REGULATOR” (VERTEX PHARMACEUTICALS INCORPORATED, priority 2020, published 2023).

Biological target: CFTR (Homo sapiens, UniProt P13569)
Experiment: Membrane Potential Dye, Enteroid Assay B
Assay type: cell-based
Conditions: for EC50: read-out: Ent. B EC50
Protocol: Base medium (ADF+++) consisted of Advanced DMEM/Ham's F12, 2 mM Glutamax, 10 mM HEPES, 1 µg/mL penicillin/streptomycin.
Intestinal enteroid maintenance medium (IEMM) consisted of ADF+++, 1× B27 supplement, 1× N2 supplement, 1.25 mM N-acetyl cysteine, 10 mM Nicotinamide, 50 ng/mL hEGF, 10 nM Gastrin, 1 pg/mL hR-spondin-1, 100 ng/mL hNoggin, TGF-b type 1 inhibitor A-83-01, 100 μg/mL Primocin, […] P38 MAPK inhibitor SB202190.
Bath 1 Buffer consisted of 1 mM MgCl2, 160 mM NaCl, 4.5 mM KCl, 10 mM HEPES, 10 mM Glucose, 2 mM CaCl2).
Chloride Free Buffer consisted of 1 mM Magnesium Gluconate, 2 mM Calcium Gluconate, 4.5 mM Potassium Gluconate, 160 mM Sodium Gluconate, 10 mM HEPES, 10 mM Glucose.
Bath1 Dye Solution consisted of Bath 1 Buffer, 0.04% Pluronic F127, […] Methyl Oxonol, 30 μM CaCCinh-A01, 30 μM Chicago Sky Blue.
Chloride Free Dye Solution consisted of Chloride Free Buffer, 0.04% Pluronic F127, 20 μM Methyl Oxonol, 30 μM CaCCinh-A01, 30 μM Chicago Sky Blue.
Chloride Free Dye Stimulation Solution consisted of Chloride Free Dye Solution, 10 μM forskolin, 100 μM IBMX, and 300 nM Compound III.
Human intestinal epithelial enteroid cells were obtained from the Hubrecht Institute for Developmental Biology and Stem Cell Research, Utrecht, The Netherlands and expanded in T-Flasks as previously described (Dekkers J F, Wiegerinck C L, de Jonge H R, Bronsveld I, Janssens H M, de Winter-de Groot K M, Brandsma A M, de Jong N W M, Bijvelds M J C, Scholte B J, Nieuwenhuis E E S, van den Brink S, Clevers H, van der Ent C K, Middendorp S and M Beekman J M. A functional CFTR assay using primary cystic fibrosis intestinal organoids. Nat Med. 2013 July; 19(7):939-45.).
Cells were recovered in cell recovery solution, collected by centrifugation at 650 rpm for 5 min at 4° C., resuspended in TryPLE and incubated for 5 min at 37° C. Cells were then collected by centrifugation at 650 rpm for 5 min at 4° C. and resuspended in IEMM containing 10 μM ROCK inhibitor (RI). The cell suspension was passed through a 40 μm cell strainer and resuspended at 1×10^6 cells/mL in IEMM containing 10 μM RI. Cells were seeded at 5000 cells/well into multi-well plates and incubated for overnight at 37° C., 95% humidity and 5% CO2 prior to assay.
Enteroid cells were incubated with test compound in IEMM for 18-24 hours at 37° C., 95% humidity and 5% CO2. […] Briefly, cells were washed 5 times in Bath 1 Buffer. Bath 1 Dye Solution was added and the cells were incubated for 25 min at room temperature. Following dye incubation, cells were washed 3 times in Chloride Free Dye Solution. Chloride transport was initiated by addition of Chloride Free Dye Stimulation Solution and the fluorescence signal was read for 15 min. […] Chloride transport was then expressed as a percentage of the chloride transport following treatment with 1 μM (14S)-8-[3-(2-{Dispiro[2.0.2.1]heptan-7-yl}ethoxy)-1H-pyrazol-1-yl]-12,12-dimethyl-2λ^6-thia-3,9,11,18,23-pentaazatetracyclo[17.3.1.111,14.05,10]tetracosa-1(22),5,7,9,19(23),20-hexaene-2,2,4-trione, 3 μM (R)-1-(2,2-difluorobenzo[d][1,3]dioxol-5-yl)-N-(1-(2,3-dihydroxypropyl)-6-fluoro-2-(1-hydroxy-2-methylpropan-2-yl)-1H-indol-5-yl)cyclopropanecarboxamide and 300 nM acute N-[2,4-bis(1,1-dimethylethyl)-5-hydroxyphenyl]-1,4-dihydro-4-oxoquinoline-3-carboxamide triple combination control (% Activity).

Chain of CFTR (P13569 with tags, fused parts or gaps DEL508-508): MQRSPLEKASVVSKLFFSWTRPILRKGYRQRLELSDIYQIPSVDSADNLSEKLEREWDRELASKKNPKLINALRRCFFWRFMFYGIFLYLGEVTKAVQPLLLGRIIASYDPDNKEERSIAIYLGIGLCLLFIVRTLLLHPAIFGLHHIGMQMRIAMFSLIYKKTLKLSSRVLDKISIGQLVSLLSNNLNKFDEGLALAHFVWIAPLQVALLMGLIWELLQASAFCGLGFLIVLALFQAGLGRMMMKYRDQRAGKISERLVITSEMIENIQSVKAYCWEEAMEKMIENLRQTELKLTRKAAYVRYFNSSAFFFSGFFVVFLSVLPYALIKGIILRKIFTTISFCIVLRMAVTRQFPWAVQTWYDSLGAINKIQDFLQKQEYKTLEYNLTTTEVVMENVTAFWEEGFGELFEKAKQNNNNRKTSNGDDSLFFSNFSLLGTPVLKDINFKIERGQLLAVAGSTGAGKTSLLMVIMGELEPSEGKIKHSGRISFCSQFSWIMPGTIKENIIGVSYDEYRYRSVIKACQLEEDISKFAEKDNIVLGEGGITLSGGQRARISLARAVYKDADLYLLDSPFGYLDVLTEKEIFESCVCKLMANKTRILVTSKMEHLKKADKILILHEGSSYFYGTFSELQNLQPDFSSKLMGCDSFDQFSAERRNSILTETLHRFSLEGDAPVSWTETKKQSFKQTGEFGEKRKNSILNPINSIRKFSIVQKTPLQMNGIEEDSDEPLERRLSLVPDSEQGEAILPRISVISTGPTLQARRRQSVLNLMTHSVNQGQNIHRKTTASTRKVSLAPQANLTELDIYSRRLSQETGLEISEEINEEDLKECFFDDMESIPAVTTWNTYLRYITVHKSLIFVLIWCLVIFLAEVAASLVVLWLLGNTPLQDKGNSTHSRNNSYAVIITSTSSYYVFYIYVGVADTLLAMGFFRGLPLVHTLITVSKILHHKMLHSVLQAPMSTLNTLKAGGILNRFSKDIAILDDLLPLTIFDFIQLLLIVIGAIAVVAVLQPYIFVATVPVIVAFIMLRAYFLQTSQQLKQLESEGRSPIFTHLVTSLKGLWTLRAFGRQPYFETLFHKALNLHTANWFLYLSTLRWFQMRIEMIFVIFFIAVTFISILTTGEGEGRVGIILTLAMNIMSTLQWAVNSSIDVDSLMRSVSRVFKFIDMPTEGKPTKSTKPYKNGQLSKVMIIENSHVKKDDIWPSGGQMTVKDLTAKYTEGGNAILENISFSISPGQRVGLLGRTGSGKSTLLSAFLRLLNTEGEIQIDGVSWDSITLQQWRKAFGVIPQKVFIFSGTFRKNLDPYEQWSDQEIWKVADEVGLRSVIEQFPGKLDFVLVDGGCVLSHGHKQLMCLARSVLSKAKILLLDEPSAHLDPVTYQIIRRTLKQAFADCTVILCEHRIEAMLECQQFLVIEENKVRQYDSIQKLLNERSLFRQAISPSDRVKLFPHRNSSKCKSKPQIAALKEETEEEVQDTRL

Row | Compound | Ent. B Max Activity | EC50
1 | Cc1cccc(C)c1-c1nc2nc(c1C)OC[C@@H](CCC(C)(C)O)NC(=O)c1cccc(c1)S(=O)(=O)N2 [Compound 107, (11R)-6-(2,6-Dimethylphenyl)-11-(3-hydroxy-3-methyl-butyl)-7-methyl-2,2-dioxo-9-oxa-2λ^6-thia-3,5,12,19-tetrazatricyclo[12.3.1.14,8]nonadeca-1(18),4(19),5,7,14,16-hexaen-13-one] | + (+ is <30%) | 3000 to 30000 nM
2 | Cc1cccc(C)c1-c1nc2nc(c1-c1cnn(CC(C)C)c1)O[C@H](C)CNC(=O)c1cccc(c1)S(=O)(=O)N2 [Compound 127] | +++ (+++ is >60%) | 1000 to 3000 nM
3 | Cc1cccc(C)c1-c1nc2nc(c1-c1cnn(C(C)C)c1)O[C@H](C)CNC(=O)c1cccc(c1)S(=O)(=O)N2 [Compound 147] | ++ (++ is 30-60%) | 3000 to 30000 nM
4 | Cc1cccc(C)c1-c1nc2nc(c1C1CCOCC1)O[C@H](C)CNC(=O)c1cccc(c1)S(=O)(=O)N2 [Compound 151] | ++ (++ is 30-60%) | –
5 | COc1ccccc1-c1c2nc(nc1-c1c(C)cccc1C)NS(=O)(=O)c1cccc(c1)C(=O)N[C@H](C)CO2 [Compound 123, (11R)-6-(2,6-Dimethylphenyl)-7-(2-methoxyphenyl)-11-methyl-2,2-dioxo-9-oxa-2λ^6-thia-3,5,12,19-tetrazatricyclo[12.3.1.14,8]nonadeca-1(18),4(19),5,7,14,16-hexaen-13-one] | +++ (+++ is >60%) | 1000 to 3000 nM
6 | Cc1cccc(C)c1-c1nc2nc(c1C)OC[C@@H](CC(C)(C)O)N(Cc1ncccn1)C(=O)c1cccc(c1)S(=O)(=O)N2 [Compound 111] | +++ (+++ is >60%) | 1000 to 3000 nM
7 | Cc1cccc(C)c1-c1nc2nc(c1C)OC[C@@H](CCC(C)(C)O)N(CCCC(C)(C)O)C(=O)c1cccc(c1)S(=O)(=O)N2 [Compound 109] | ++ (++ is 30-60%) | 3000 to 30000 nM
8 | Cc1cccc(C)c1-c1nc2nc(c1C)OC[C@@H](CCC(C)(C)O)N(Cc1ncccn1)C(=O)c1cccc(c1)S(=O)(=O)N2 [Compound 113] | ++ (++ is 30-60%) | 3000 to 30000 nM
9 | Cc1cccc(C)c1-c1nc2nc(c1-c1cnn(C)c1)OC[C@@H](C)NC(=O)c1cccc(c1)S(=O)(=O)N2 [Compound 146] | + (+ is <30%) | –
10 | Cc1cccc(C)c1-c1nc2nc(c1C#N)OC[C@@H](CC(C)C)NC(=O)c1cccc(c1)S(=O)(=O)N2 [Compound 169, (11R)-6-(2,6-Dimethylphenyl)-11-isobutyl-2,2,13-trioxo-9-oxa-2λ^6-thia-3,5,12,19-tetrazatricyclo[12.3.1.14,8]nonadeca-1(18),4(19),5,7,14,16-hexaene-7-carbonitrile] | +++ (+++ is >60%) | 3000 to 30000 nM
11 | Cc1cccc(C)c1-c1nc2nc(c1-c1ccn(C)n1)OC[C@@H](C)NC(=O)c1cccc(c1)S(=O)(=O)N2 [Compound 137] | + (+ is <30%) | –
12 | Cc1cccc(C)c1-c1nc2nc(c1C)OC[C@@H](CC(C)C)N(C1CC3(CCN(C)CC3)C1)C(=O)c1cccc(c1)S(=O)(=O)N2 [Compound 74] | +++ (+++ is >60%) | < 1000 nM
13 | Cc1cccc(C)c1-c1nc2nc(c1C#N)OC[C@@H](CC(C)C)N(C1CC3(CC3)C1)C(=O)c1cccc(c1)S(=O)(=O)N2 [Compound 174] | ++ (++ is 30-60%) | < 1000 nM
14 | Cc1cccc(C)c1-c1nc2nc(c1-c1cnn(C(C)C)c1)OC[C@@H](C)NC(=O)c1cccc(c1)S(=O)(=O)N2 [Compound 139] | + (+ is <30%) | 3000 to 30000 nM
15 | Cc1cccc(C)c1-c1nc2nc(c1C1CCN(C(=O)OC(C)(C)C)CC1)OC[C@@H](C)NC(=O)c1cccc(c1)S(=O)(=O)N2 [Compound 141] | + (+ is <30%) | –

Next, values leading:

Row | Ent. B Max Activity | EC50 | Compound
16 | +++ (+++ is >60%) | < 1000 nM | Cc1cccc(C)c1-c1nc2nc(c1C)OC[C@@H](CC(C)(C)C(F)(F)F)N(C1CC3(CCNCC3)C1)C(=O)c1cccc(c1)S(=O)(=O)N2 [Compound 157, (11R)-12-{7-Azaspiro[3.5]nonan-2-yl}-6-(2,6-dimethylphenyl)-7-methyl-11-(3,3,3-trifluoro-2,2-dimethylpropyl)-9-oxa-2λ^6-thia-3,5,12,19-tetraazatricyclo[12.3.1.14,8]nonadeca-1(17),4(19),5,7,14(18),15-hexaene-2,2,13-trione]
17 | +++ (+++ is >60%) | < 1000 nM | Cc1cccc(C)c1-c1nc2nc(c1C)OC[C@@H](CC(C)C)N(C1CC3(CC(CO)C3)C1)C(=O)c1cccc(c1)S(=O)(=O)N2 (stereo in doubt) [Compound 66]
18 | +++ (+++ is >60%) | < 1000 nM | Cc1cccc(C)c1-c1nc2nc(c1C)OC[C@@H](CC(C)(C)C)NC(=O)c1cccc(c1)S(=O)(=O)N2 [Compound 102]
19 | ++ (++ is 30-60%) | < 1000 nM | Cc1cccc(C)c1-c1nc2nc(c1C1=CCN(C(=O)OC(C)(C)C)CC1)O[C@H](C)CNC(=O)c1cccc(c1)S(=O)(=O)N2 [Compound 149]
20 | +++ (+++ is >60%) | < 1000 nM | Cc1cccc(C)c1-c1nc2nc(c1C)OC[C@@H](CC(C)(C)C)N(C1CC3(CCN(C(=O)OC(C)C)CC3)C1)C(=O)c1cccc(c1)S(=O)(=O)N2 [Compound 77]
21 | +++ (+++ is >60%) | < 1000 nM | COC1CC(N2C(=O)c3cccc(c3)S(=O)(=O)Nc3nc(c(C)c(-c4c(C)cccc4C)n3)OC[C@H]2CC(C)C)C1 (stereo in doubt) [Compound 72]
22 | +++ (+++ is >60%) | < 1000 nM | COc1c2nc(nc1-c1c(C)cccc1C)NS(=O)(=O)c1cccc(c1)C(=O)N[C@H](CC(C)C)CO2 [Compound 180]
23 | ++ (++ is 30-60%) | < 1000 nM | Cc1cccc(C)c1-c1nc2nc(c1CO)OC[C@@H](CC(C)C)N(C1CC3(CC3)C1)C(=O)c1cccc(c1)S(=O)(=O)N2 [Compound 170, (11R)-6-(2,6-Dimethylphenyl)-7-(hydroxymethyl)-11-isobutyl-2,2-dioxo-12-spiro[2.3]hexan-5-yl-9-oxa-2λ^6-thia-3,5,12,19-tetrazatricyclo[12.3.1.14,8]nonadeca-1(18),4(19),5,7,14,16-hexaen-13-one]
24 | +++ (+++ is >60%) | < 1000 nM | [H][C@]1(N2C(=O)c3cccc(c3)S(=O)(=O)Nc3nc(c(C)c(-c4c(C)cccc4C)n3)OC[C@H]2CC(C)(C)C)C[C@@]2(C[C@H](C(C)(C)O)C2)C1 (single isomer, unassigned) [Compound 58]
25 | +++ (+++ is >60%) | < 1000 nM | Cc1cccc(C)c1-c1nc2nc(c1C)OC[C@@H](CC1(C(F)(F)F)CC1)N(C1CC3(CC(NC(=O)OC(C)C)C3)C1)C(=O)c1cccc(c1)S(=O)(=O)N2 (stereo in doubt) [Compound 89]
26 | ++ (++ is 30-60%) | < 1000 nM | Cc1cccc(C)c1-c1nc2nc(c1C)OC[C@@H](CC(C)C)N([C@H]1C[C@@H](OC(C)C)C1)C(=O)c1cccc(c1)S(=O)(=O)N2 (single isomer, unassigned) [Compound 47]
27 | +++ (+++ is >60%) | < 1000 nM | Cc1cccc(C)c1-c1nc2nc(c1OC(C)C)OC[C@@H](CC(C)C)N(C1CC3(CC3)C1)C(=O)c1cccc(c1)S(=O)(=O)N2 [Compound 189]
28 | +++ (+++ is >60%) | < 1000 nM | Cc1cccc(C)c1-c1nc2nc(c1C)OC[C@@H](CC(C)(C)C(F)(F)F)N(C1CC3(CCN(C(=O)OC(C)C)CC3)C1)C(=O)c1cccc(c1)S(=O)(=O)N2 [Compound 184]
